These results are taken from PubChem BioAssay AID1996.

Values after ≈ are worked out from the molar mass of the structure shown.

The conditions of the data set: buffer; pH 7.4; 200.0 µM.
In the case of `CC1(C)CC(=O)C=C(Nc2ccc3c(c2)CCC3)C1`, the solubility (kinetic) (usually solubility judged after dilution from a stock solution rather than from solid) is 35.8 µg/mL (≈ 140 µM).
Then `CCN(CC)Cc1c(O)ccc2c(=O)c(-c3ccccc3OC)coc12`, with greater than 53 µg/mL; and `Cc1c2c(n3c(nc4ccccc43)c1C#N)N(CCCN(C)C)CC2`, with greater than 50 µg/mL.
In turn, `CCc1ccc(NC(=O)NCc2ccccn2)cc1` displayed a solubility (kinetic) greater than 38.3 µg/mL.
In turn, `Clc1cc(Cl)cc(CN2CCSCC2)c1` came in with a solubility (kinetic) of 4.5 µg/mL (≈ 17.2 µM).
The result for `CC(C)(C)C(=O)/C=C1\NC(=O)CS1` reads greater than 29.9 µg/mL.
In turn, `CC(Sc1nncn1C)C(=O)NCCC1=CCCCC1` (configuration not stated) returned a kinetic solubility greater than 44.2 µg/mL.
The result for `CN1C(=O)c2cccc3c(N(C)C)ccc(c23)C1=O` reads 5.9 µg/mL (≈ 23.2 µM); that for `O=C(O)C1CN(C(=O)c2ccccc2)c2cc(Cl)ccc2O1` (configuration not stated), greater than 47.7 µg/mL; that for `CCN(c1cccc(C)c1)C1C(=O)c2ccccc2N1C(C)=O` (configuration not stated), greater than 46.3 µg/mL.
Molecule `COc1cccc(C(=O)O/N=C(\C)c2cnccn2)c1` displayed a kinetic solubility of 30.7 µg/mL (≈ 113 µM).
As for `CNC(=S)N(CCc1c(C)[nH]c2ccccc12)Cc1ccco1`, the solubility (kinetic) is 1.5 µg/mL (≈ 4.58 µM). Compared with the last molecule, the solubility kinetic is about 20-fold lower.
As to `O=C(COc1ccc2ccc(=O)oc2c1)NC1CCCC1`, the kinetic solubility was greater than 43.1 µg/mL.
Molecule `CCNC(=O)N1CCC(c2nc3ccccc3s2)CC1` returned a kinetic solubility greater than 43.4 µg/mL.
In the case of `Cc1[nH]c2ccccc2c1C(=O)CSc1cccc[n+]1[O-]`, the solubility (kinetic) was determined as 40.8 µg/mL (≈ 137 µM).
Consider `NC(=O)CCC1NC(=S)N(Cc2ccccc2)C1=O` (configuration not stated), for which the kinetic solubility is 32.6 µg/mL (≈ 118 µM). The solubility kinetic values of the last two molecules are within 1.5-fold of each other.
Turning to `Cc1[nH]c2ccccc2c1C(=O)COC(=O)c1nccnc1N`, the solubility (kinetic) was 6.9 µg/mL (≈ 22.2 µM).
The result for `COc1ccc(-c2ccc3ccccc3n2)cc1` reads less than 0.5 µg/mL; that for `Cc1cc(C#N)c(SCC(N)=O)nc1-c1ccc(F)cc1`, 5.6 µg/mL (≈ 18.6 µM).
Molecule `CCCCOC(=O)C1=C(C)NC(=O)NC1c1ccc(N(C)C)cc1` (configuration not stated) came in with a solubility (kinetic) of 1.7 µg/mL (≈ 5.13 µM).
Then `CCOC(=O)Cc1ccc(NC(=O)c2ccc([N+](=O)[O-])cc2)cc1`, with 1 µg/mL (≈ 3.05 µM).
For the molecule `COC(=O)c1scc(C)c1NC(=O)CSc1ccc(Cl)cc1`, the kinetic solubility is 1.3 µg/mL (≈ 3.65 µM).
Molecule `CC(C)c1nc(SCC(=O)Nc2cccc3ccccc23)n[nH]1` had a kinetic solubility greater than 49 µg/mL.
`Cc1cc(C)c2ccc3c(C)c(C)n(C)c3c2n1` had a solubility (kinetic) of less than 0.3 µg/mL.
Molecule `Cc1c(C(=O)c2ccc(F)cc2F)c2ccccn2c1CCC#N` yielded a solubility (kinetic) of 44.4 µg/mL (≈ 137 µM).
Then `O=C(Nc1cc(=O)[nH]c(=O)[nH]1)c1cc(Cl)ccc1Cl`, with greater than 45 µg/mL; and `CCOC(=O)C(=CNc1ccc(C(F)(F)F)cc1)C(=O)OCC`, with 2.7 µg/mL (≈ 8.15 µM).
`COc1cc(OC)c(C2C(C#N)=C(C)NC(C)=C2C#N)c(C(=O)O)c1` had a kinetic solubility greater than 50.9 µg/mL.
Then `O=C(Cc1ccccc1)Nc1ccc(NC(=O)c2cccs2)cc1`, with less than 0.4 µg/mL; and `Cc1ccc(OCc2ccc([N+](=O)[O-])cc2)c([N+](=O)[O-])n1`, with 1.1 µg/mL (≈ 3.8 µM).
The result for `CCCn1c(COc2ccccc2)nc2ccccc21` reads 37.4 µg/mL (≈ 140 µM); that for `O=C(Nc1ccc(Br)cc1)c1ccc2c(c1)OCO2`, 1.3 µg/mL (≈ 4.06 µM).
For `CCN(CC(=O)Nc1cc(Cl)ccc1C)C(=O)C1CC1`, the kinetic solubility is greater than 44.2 µg/mL.
Then `Cc1onc(-c2ccccc2)c1-c1nc2cc(Cl)ccc2c(=O)o1`, with 3.7 µg/mL (≈ 10.9 µM); and `Cc1cccc(C(=O)Nc2sc3c(c2C(=O)O)CCCC3)c1`, with 6.9 µg/mL (≈ 21.9 µM); and `OC(c1nc2ccccc2[nH]1)C(O)C(O)C(O)c1nc2ccccc2[nH]1` (configuration not stated), with 1.4 µg/mL (≈ 3.95 µM).
For the molecule `CCCN(C(=O)/C=C/c1ccc(S(=O)(=O)N(CC)CC)cc1)C1CCS(=O)(=O)C1` (configuration not stated), the kinetic solubility is greater than 66.4 µg/mL.
On to `O=C(Oc1c(-c2ccccc2)c(=O)n2c3c(cccc13)CC2)c1ccc(Cl)cc1`, for which the solubility (kinetic) was less than 0.9 µg/mL.
Molecule `COc1ccc(CN2CC(C(N)=O)Oc3ccccc32)cc1F` (configuration not stated) yielded a solubility (kinetic) of 35.6 µg/mL (≈ 113 µM).
Then `O=C1CCCC2=C1C(c1ccsc1)CC(=O)N2c1ccccc1F` (configuration not stated), with greater than 51.2 µg/mL; and `Cc1ccc2c(c1)/C(=C/c1ccccc1F)C(=O)N2`, with 1.3 µg/mL (≈ 5.13 µM).
Then `Cc1cccc(N2C(=NC(=O)c3ccccc3)SC3CS(=O)(=O)CC32)c1` (configuration not stated), with less than 0.4 µg/mL.
In the case of `O=[N+]([O-])c1ccc2ncnc(Nc3ccc4c(c3)OCCO4)c2c1`, the solubility (kinetic) stood at 0.2 µg/mL (≈ 0.617 µM).
The result for `COc1ccccc1CNC(=O)CN1C(=O)NC2(CCCCCCC2)C1=O` reads greater than 56 µg/mL.
Then `COc1ccc(NC(=O)COC(=O)C23CC4CC(CC(NC(C)=O)(C4)C2)C3)cc1S(=O)(=O)N1CCOCC1`, with greater than 82.4 µg/mL.
For `O=C(Nc1cccnc1)C1=NN(C2CCS(=O)(=O)C2)C(=O)CC1` (configuration not stated), the kinetic solubility is greater than 50.5 µg/mL.
The result for `CCCOP(=O)(c1ccc(N(C)C)cc1)C(O)c1ccc(Cl)cc1` (configuration not stated) reads 18.5 µg/mL (≈ 50.3 µM); that for `CCOC(=O)C(=CNc1ccc(N2CCOCC2)cc1)C(=O)OCC`, greater than 52.3 µg/mL; that for `CC(C)(C)n1cnc2cc(NC(=O)c3cccs3)ccc21`, greater than 44.9 µg/mL.
On to `CC1CCCN(C2(O)C(=O)Nc3c(C(F)(F)F)cccc32)C1` (configuration not stated), for which the solubility (kinetic) was greater than 47.1 µg/mL.
Then `CCN(CC)S(=O)(=O)c1ccc(C(=O)NC2=NCCS2)cc1`, with 2.3 µg/mL (≈ 6.74 µM); and `COCCCNCC(O)C(F)(F)F` (configuration not stated), with 24.4 µg/mL (≈ 121 µM).
For `CCN(CC)C(=O)c1cccc2nc3ccccc3nc12`, the solubility (kinetic) is greater than 41.9 µg/mL.
In turn, `COC(=O)c1ccc(N2C(=O)C3CC(C)=C(C)CC3C2=O)cc1` (configuration not stated) gave a solubility (kinetic) of 18.3 µg/mL (≈ 58.4 µM).
Then `CN1CCN(c2c([N+](=O)[O-])cnc3ccccc23)CC1.Cl`, with greater than 46.3 µg/mL.
In turn, `Cc1ccccc1NC(=O)CN1C(=O)CSc2ccccc21` yielded a kinetic solubility of 3.6 µg/mL (≈ 11.5 µM).
Then `O=C1CCC/C1=C/Nc1cccc(F)c1`, with 23.6 µg/mL (≈ 115 µM); and `CC(C)(C)N=C(NS(=O)(=O)c1cccs1)c1ccccc1`, with greater than 48.4 µg/mL; and `CSc1cccc(NC(=S)N2CCC(c3ccccc3)C2)c1` (configuration not stated), with 2.2 µg/mL (≈ 6.7 µM).
Then `O=C1C/C(=C\c2c(F)cccc2Cl)N2CCC1CC2`, with 39.7 µg/mL (≈ 142 µM); and `Cc1ccc(-c2nc(=O)[nH]c3ccc(Br)cc23)cc1`, with 6.7 µg/mL (≈ 21.3 µM); and `Cc1cc(O)c(CN(C)C)c2c1C(=O)/C(=C/c1ccco1)O2`, with greater than 44.9 µg/mL.
Take `C=CCN1C(=O)C(Cc2ccccc2Cl)SC1=Nc1ccc(C(=O)O)cc1` (configuration not stated): the kinetic solubility was greater than 60.1 µg/mL.
As to `Cc1ccc(SCc2ccc(C(=O)N3CCCCC3)cc2)cc1`, the solubility (kinetic) stood at 6.1 µg/mL (≈ 18.7 µM).
The result for `Cc1cccc(N2C(=O)C3CCCN3C2=S)c1` (configuration not stated) reads 36.1 µg/mL (≈ 147 µM); that for `O=C(O)Cc1c(-c2ccccc2)c2cc(Br)ccc2[nH]c1=O`, 50.2 µg/mL (≈ 140 µM); that for `Cc1cccc(NC(=S)NC(=O)Cc2ccccc2)c1C`, 1.1 µg/mL (≈ 3.69 µM).
The result for `O=C(COc1ccccc1[N+](=O)[O-])Nc1ccc2c(c1)OCO2` reads 1.7 µg/mL (≈ 5.38 µM); that for `COc1ccc(CN2C(=O)c3cccc4cccc2c34)cc1F`, 9.8 µg/mL (≈ 31.9 µM); that for `O=C1NC2=C(C(=O)OC2)C(c2ccc(OC(F)(F)F)cc2)N1` (configuration not stated), greater than 47.1 µg/mL.
Molecule `CSc1ncccc1C(=O)OCC(=O)c1ccccc1` had a kinetic solubility of 1 µg/mL (≈ 3.48 µM).
The result for `Cc1ccc(C(=O)C2CCN(CC(=O)NC3CCCC3)CC2)cc1` reads greater than 49.3 µg/mL; that for `CCCc1c(C)nc(SCC(=O)C(C)(C)C)nc1OC(=O)N(C)C`, 46.8 µg/mL (≈ 132 µM); that for `COc1cccc(CNC2CCCCCCC2)c1OC`, 31.6 µg/mL (≈ 114 µM).
The molecule `CC(C)Cn1c(=S)[nH]c2ccccc2c1=O` had a solubility (kinetic) of 1.6 µg/mL (≈ 6.83 µM).
In turn, `CCOc1cc(CN2CCN(c3ncccn3)CC2)ccc1OC` displayed a solubility (kinetic) of 43.4 µg/mL (≈ 132 µM). Compared with the last molecule, the solubility kinetic is about 27-fold higher.
Then `CCCNc1nc(OC)nc(N2CC3CC(C2)c2cccc(=O)n2C3)n1` (configuration not stated), with 50.6 µg/mL (≈ 142 µM); and `CC(=O)NCCC(=O)Nc1nc2c(ccc3ccccc32)s1`, with 1.7 µg/mL (≈ 5.42 µM).
Then `Cc1ccc(CN(Cc2ccco2)C(=O)c2ccco2)cc1`, with 35.4 µg/mL (≈ 120 µM); and `O=C(NC1CCSc2ccccc21)c1cccc(OC(F)F)c1` (configuration not stated), with 4.5 µg/mL (≈ 13.4 µM).
Then `COc1ccc(Cc2c([O-])[nH]c(=O)[nH]c2=O)c(OC)c1.[NH4+]`, with 43.1 µg/mL; and `CCc1c(C)nc(N2CCN(c3ccc(OC)cc3)CC2)[nH]c1=O`, with 5.5 µg/mL (≈ 16.7 µM).
Molecule `O=C(NCCCn1ccnc1)C(=O)NC1CCCCC1` registered a solubility (kinetic) greater than 41.8 µg/mL.
The result for `Cc1scc(C(=O)N2CCN(c3ccc(Cl)cc3)CC2)c1C` reads 23.3 µg/mL (≈ 69.6 µM); that for `O=C(COC(=O)C1CC2CCCC(C1)C2=O)Nc1cccc(F)c1` (configuration not stated), greater than 50 µg/mL.
`Cc1ccc(N2C(=O)C3C=NNC3C2=O)cc1` (configuration not stated) gave a solubility (kinetic) greater than 34.4 µg/mL.
`N=C1C(c2nc3ccccc3s2)=C(O)CN1C1CCC(O)CC1` (configuration not stated) showed a solubility (kinetic) of 5.1 µg/mL (≈ 15.5 µM).
The result for `COc1ccc(C2=NOC(C(=O)Nc3cccc(O)c3)C2)cc1` (configuration not stated) reads 22.8 µg/mL (≈ 73 µM).
`CCOc1ccc(S(=O)(=O)NC2=NCCCCC2)cc1` returned a solubility (kinetic) greater than 44.5 µg/mL.
On to `CC(C)CC(=O)Nc1ccc2ccccc2c1`, for which the solubility (kinetic) was found to be 6.2 µg/mL (≈ 27.3 µM).
Take `COC(=O)[C@H](Cc1ccccc1)NC(=O)N1CCCCCC1`: the kinetic solubility is greater than 45.7 µg/mL.
Then `COc1cc(OC)nc(Oc2cc(C=O)ccc2OC)n1`, with greater than 43.5 µg/mL.
The result for `COC(=O)c1ccc(NC(=O)Nc2ccc(OC)cc2)cc1` reads 1.4 µg/mL (≈ 4.66 µM); that for `C=CCn1c(SCC(N)=O)nc2nc3c(cc2c1=O)COC(C)(C)C3`, 46.6 µg/mL (≈ 129 µM); that for `Cc1cc(=O)c(C(=O)O)nn1-c1ccccc1C(F)(F)F`, greater than 44.7 µg/mL.
The result for `COc1ccc(CCNC(=O)COC(=O)Cc2ccccc2[N+](=O)[O-])cc1` reads greater than 55.9 µg/mL; that for `COc1cc2c(cc1OC)C(c1cc([N+](=O)[O-])ccc1O)NCC2` (configuration not stated), greater than 49.6 µg/mL.
Molecule `COc1ccc(C(=O)Nc2ccc3ccccc3c2)cc1` registered a solubility (kinetic) of less than 0.6 µg/mL.
The molecule `CC12CCC(=O)N1C(C(=O)NCCc1ccccc1)CS2` (configuration not stated) yielded a solubility (kinetic) of 37.6 µg/mL (≈ 124 µM).
In turn, `CC(=O)Oc1ccccc1C(=O)NC(C)CCc1ccccc1` (configuration not stated) had a solubility (kinetic) greater than 46.7 µg/mL.
Regarding `COc1ccc(CN(C)C(C)C(=O)Nc2ccc(S(=O)(=O)N3CCCCC3)cc2)c(OC)c1` (configuration not stated), the kinetic solubility was 6.1 µg/mL (≈ 12.8 µM).
The result for `Fc1ccccc1N1CCN(CC2CCCCC2)CC1` reads 6.2 µg/mL (≈ 22.4 µM).
